This is an account of results in US11401294B2, “Co-crystal forms of a novobiocin analog and proline” (Reata Pharmaceuticals, Inc., priority 2018, dated 2022).

The subject of one data set is neurons. The note with it: Kusuma (2012); cited from earlier work.
The test system of the next data set is Hsp90. The note with it: Kusuma (2012) and Ma (2015); cited from earlier work.
Another data set in a line: in vivo. Conditions: male, C57BL/6, mouse, po, 1000 mg/kg. As for the experimental part: Blood samples for plasma isolation were collected at 0.25, 0.5, 1, 2, 4, 8, and 24 hours post-dose, using a separate group (n=5/group/time point) of mice for each time point, as summarized in Table 14 below. Plasma samples were analyzed for concentrations of 4a by LC/MS/MS methodology as described below.
4a was extracted from K3EDTA-fortified plasma samples using a protein precipitation method. In a well of a polypropylene microplate (96-well), 20 μL of a 2.5-ng/mL D3-4a (internal standard, IS) solution prepared in acetonitrile/H2O (1:1) was added, followed by addition of 20 μL of plasma sample. The plate was sealed with sealing tape (Phenomenex, AH0-7362) and gently mixed with a vortex-mixer for 1 minute. The solution was pipetted into a well of a polypropylene plate (96-well, 2 mL, Phenomenex, AH0-7194) that contained 500 μL of methanol. The plate was sealed and vortex-mixed for 5 minutes followed by centrifugation at 3000×g for 3 minutes at room temperature. A 300-μL aliquot of the supernatant was transferred to a new well that contained 300 μL of deionized water. After gentle mixing, the plate was sealed and placed in an LC autosampler maintained at 12° C., and a 10-μL aliquot was injected into an LC/MS/MS system for quantitative analysis of 4a.
Liquid chromatographic separation of 4a was achieved by a reversed-phase analytical column with mobile phase solution containing H2O, acetonitrile, and formic acid. The chromatographed analyte was detected by a Waters Xevo TQ-S triple quadrupole mass spectrometer operating in multiple-reaction-monitoring (MRM) mode. Chromatographed peak areas for quality control samples, calibration standards, and study samples were integrated using MassLynx software V4.1 (Waters Corp.).
Pharmacokinetic parameter estimates were obtained from non-compartmental analysis of the mean 4a plasma concentration-time data for each dose group using WinNonlin™ software version 6.3 (Pharsight Corp., Cary, N.C.). […] The time of the last measurable concentration was defined as the time after which 4a concentrations were below the limit of quantitation (BLQ) in the majority of animals for each dose group.

Data set [1] is described as follows: Systemic exposure to 4a after single oral gavage (suspension) or loose-filled capsule in monkeys (plasma LC/MS/MS, PK). The format is in vivo. Conditions: male, cynomolgus, cynomolgus monkey, oral gavage suspension 30 mg/kg, 0.25 hr, read-out: 4a Plasma Concentration, mean (±SD).
Assay in data set [2]: as above
The note with it: for AUC(0-t): read-out: AUC(0-t), mean (±SD); for Cmax: read-out: Cmax, mean (±SD); for Tmax: read-out: Tmax (median). The format is in vivo, male cynomolgus monkeys. The method, then: Dosing of Material A accounted for the presence of proline on a weight basis. Blood samples for plasma isolation were collected at […], 0.5, 1, 2, 4, 8, 12, and 24 hours post-dose from each monkey.

Where [3] appears, read: male, cynomolgus, cynomolgus monkey, plasma, oral gavage suspension 30 mg/kg, read-out: 4a Plasma Concentration, mean (±SD).
Setting [4] is: male, cynomolgus, cynomolgus monkey, plasma, oral gavage suspension 30 mg/kg.
Setting [5] is: male, cynomolgus, cynomolgus monkey, plasma, oral, capsule 50 mg, read-out: 4a Plasma Concentration, mean (±SD).
Setting [6] is: male, cynomolgus, cynomolgus monkey, plasma, oral, capsule 50 mg, BLQ values included as 1/2 LLOQ (0.200 ng/mL), read-out: 4a Plasma Concentration, mean (±SD).
Setting [7] is: male, cynomolgus, cynomolgus monkey, plasma, po, 50 mg capsule.

Structures are written as SMILES. Like-named read-outs stand apart in the source and are kept apart here. Marks after values point to notes of the source that are not given here.

With `CO[C@@H]1[C@@H](O)[C@@H](O)C(Oc2ccc(CCNC(C)=O)c(-c3cccc(F)c3)c2)OC1(C)C` (single isomer, unassigned) [Form 4], the neuronal protective activity result in the data set on neurons is recorded as “high neuronal protective activity”. Also, the “potency in Hsp70-independent inhibition of Hsp90” value with Hsp90 is reported as “excellent potency”.
Broadly, the AUC(0-t) is the area under the concentration-time curve up to a stated or last time point. Usually Cmax stands for the maximum level reached in the sampled fluid or tissue. The term Tmax denotes the time at which the peak concentration occurs. As for `CO[C@@H]1[C@@H](O)[C@@H](O)[C@H](Oc2ccc(CCNC(C)=O)c(-c3cccc(F)c3)c2)OC1(C)C` [amorphous 4a, N-(2-(5-(((2R,3R,4S,5R)-3,4-dihydroxy-5-methoxy-6,6-dimethyltetra-hydro-2H-pyran-2-yl)oxy)-3′-fluoro-[1,1′-biphenyl]-2-yl)ethyl)-acetamide], the area under the curve AUC(0-t) was 2880 ng·h/mL in the data set “in vivo”, 307 ± 96 ng·h/mL in data set [2] (setting [4]) and 81.6 ± 105 ng·h/mL in data set [2] (setting [7]). The Cmax in the data set “in vivo” turned out to be 6760 ng/mL; in data set [2] (setting [4]), 160 ± 78 ng/mL; in data set [2] (setting [7]), 19.7 ± 9.4 ng/mL. For the same compound, the Tmax in the data set “in vivo” came to 15 min; in data set [2] (setting [4]), 30 min; in data set [2] (setting [7]), 15 min. For the same compound, the concentration at 0.5 h amounted to 3060 ± 1600 ng/mL in “in vivo”, 129 ± 92 ng/mL in data set [2] (setting [3]) and 12.3 ± 5.5 ng/mL in data set [2] (setting [5]). For the same compound, the figures for the concentration at 1 h (in “in vivo”; in data set [2] (setting [3]); in data set [2] (setting [5])) were 359 ± 140 ng/mL, 128 ± 56 ng/mL and 5.97 ± 0.95 ng/mL, respectively. For the same compound, the concentration at 2 h in “in vivo” amounted to 80.7 ± 116 ng/mL; in data set [2] (setting [3]) it was 80.2 ± 26.4 ng/mL; in data set [2] (setting [6]), 1.9 ± 1.89 ng/mL. Also, the concentration at 4 h was 2.28 ± 0.92 ng/mL in the data set “in vivo”, 14.1 ± 5.5 ng/mL in data set [2] (setting [3]) and 0.2 ng/mL in data set [2] (setting [6]). Besides, the concentration at 8 h was 4.01 ± 4.34 ng/mL in the data set “in vivo”, 1.2 ± 0.45 ng/mL in data set [2] (setting [3]) and 0.951 ± 1.3 ng/mL in data set [2] (setting [6]). Moreover, the concentration at […] in data set [1] is 103 ± 71 ng/mL; in data set [2] (male, cynomolgus, cynomolgus monkey, plasma, oral, capsule 50 mg, 0.25 hr, read-out: 4a Plasma Concentration, mean (±SD)), 15.9 ± 12.9 ng/mL. For the same compound, the “4a Plasma Concentration, mean (±SD)” value in data set [2] (capsule 50 mg, 24 hr, BLQ values included as 1/2 LLOQ (0.200 ng/mL)) is 6.11 ± 9.23^c ng/mL; in data set [2] (oral gavage suspension 30 mg/kg, 12 hr) it was “BLQ^d”; in data set [2] (oral gavage suspension 30 mg/kg, 24 hr) it was “BLQ^d”. Also, the concentration at 12 h in data set [2] (male, cynomolgus, cynomolgus monkey, plasma, oral, capsule 50 mg, 12 hr, BLQ values included as 1/2 LLOQ (0.200 ng/mL), read-out: 4a Plasma Concentration, mean (±SD)) worked out at 3.53 ± 5.78 ng/mL. Further, in data set [2] (male, cynomolgus, cynomolgus monkey, plasma, oral, loose-filled capsule 50 mg, 24 hours post-dose (secondary peak), read-out: mean (±SD) 4a plasma concentration), the concentration at 24 h came out at 6.11 ± 9.23 ng/mL.
